These molecules were tested against T1, cMET receptor tyrosine kinase (GST-cMET (969-1390)) (Homo sapiens, UniProt P08581) (assay: EPK cMET profiling assay (LanthaScreen TR-FRET antibody based kinase phosphorylation assay)). Details: purified recombinant GST-cMET (969-1390), 2 μM ATP, 50 nM Fluorescein-PolyEAY, 60 minutes at room temperature; read-out: c-Met IC50.
T1 construct: made in house
Format: biochemical
Protocol: A number of compounds of the present invention were assayed in an antibody based kinase phosphorylation assay as follows.
EPK cMET Profiling Assay:
The EPK kinase assay for cMET receptor tyrosine kinase was developed, using the purified recombinant GST-fusion protein, containing the cytoplasmic domain of the enzyme. GST-cMET (969-1390) was purified by affinity chromatography.
The kinase assay is based on the LanthaScreen™ technology. LanthaScreen™ is the detection of Time-Resolved Fluorescence Resonance Energy Transfer (TR-FRET) using lanthanide chelates to measure interactions between various binding partners. In a TR-FRET kinase assay, a long-lifetime lanthanide donor species is conjugated to an antibody that specifically binds to a phosphorylated product of a kinase reaction that is labeled with a suitable acceptor fluorophore. This antibody-mediated interaction brings the lanthanide donor and the acceptor into proximity such that resonance energy transfer can take place, resulting in a detectible increase in the FRET signal.
The kinase reactions were performed in 384 well microtiter plates in a total reaction volume of 9.05 μL. The assay plates were prepared with 0.05 μL per well of test compound in the appropriate test concentration, as described under “preparation of compound dilutions”. The reactions were started by combining 4.5 μL of ATP solution with 4.5 μL of enzyme-substrate mix (consisting of kinase and substrate). The final concentrations in the kinase reactions were 35 mM Tris/HCl, 1 mM DTT, 0.025% Tween20, 10 μM sodium orthovanadate, 0.25% BSA, 0.6% DMSO, 10 mM MgCl2, 3 mM MnCl2, 2 μM ATP, 50 nM Fluorescein-PolyEAY, and 0.3 nM enzyme.
The reactions were incubated for 60 minutes at room temperature and stopped by adding 4.5 μL of stop buffer (50 mM EDTA, 0.04% NP40, 20 mM Tris/HCl).
Subsequently 4.5 μL of detection mix (50 mM Tris/HCl, 2 mM DTT, 0.05% Tween20, 20 μM sodium orthovanadate, 1% BSA, 1.72 μg/ml Tb-PY20 antibody) were added to the stopped reactions. After 30 minutes incubation at room temperature, the plates were measured in a BMG Pherastar fluorescence reader. The effect of compound on the enzymatic activity was in all assays obtained from the linear progress curves and determined from one reading (end point measurement).
Test compounds were dissolved in DMSO (10 mM) and transferred into 1.4 mL flat bottom or V-shaped Matrix tubes carrying a unique 2D matrix. The stock solutions were stored at −20° C. if not used immediately. For the test procedure the vials were defrosted and identified by a scanner whereby a working sheet was generated that guided the subsequent working steps.
Compound dilutions were made in 96 well plates. This format enabled the assay of maximally 40 individual test compounds at 8 concentrations (single points) including 4 reference compounds. The dilution protocol included the production of “pre-dilution plates”, “master plates” and “assay plates”.
Pre-dilution plates: 96 polypropylene well plates were used as pre-dilution plates. A total of 4 pre-dilution plates were prepared including 10 test compounds each on the plate positions A1-A10, one standard compound at A11 and one DMSO control at A12. All dilution steps were done on a HamiltonSTAR robot.
Master plates: 100 μL of individual compound dilutions including standard compound and controls of the 4 “pre-dilution plates” were transferred into a 384 “master plate” including the following concentrations 1,820, […], 182, 54.6, 18.2, 5.46, 1.82 and 0.546 μM, respectively in 90% of DMSO.
Assay plates: Identical “assay plates” were then prepared by pipetting 50 nL each of compound dilutions of the “master plates” into 384-well “assay plates” by means of a HummingBird 384-channel dispenser. These plates were used directly for the assay which was performed in a total volume of 9.05 μL. This led to a final compound concentration of 10, 3.0, 1.0, 0.3, 0.1, 0.03, 0.01 and 0.003 μM and a final DMSO concentration of 0.5% in the assay.

T1 sequence (P08581 969-1390): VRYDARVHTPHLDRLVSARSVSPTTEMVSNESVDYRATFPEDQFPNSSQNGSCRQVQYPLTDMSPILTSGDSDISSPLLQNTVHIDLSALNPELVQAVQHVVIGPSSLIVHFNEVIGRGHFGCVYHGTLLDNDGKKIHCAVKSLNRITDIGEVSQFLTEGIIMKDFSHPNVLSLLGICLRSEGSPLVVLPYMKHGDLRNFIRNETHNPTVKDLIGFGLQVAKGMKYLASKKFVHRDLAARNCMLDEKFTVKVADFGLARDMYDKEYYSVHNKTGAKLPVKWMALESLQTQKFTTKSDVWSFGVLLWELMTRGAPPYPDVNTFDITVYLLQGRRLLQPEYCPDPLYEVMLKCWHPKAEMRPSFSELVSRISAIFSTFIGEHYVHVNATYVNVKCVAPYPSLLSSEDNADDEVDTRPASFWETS

Compound	IC50 [nM]
Cn1cc(-c2ccc3ncc(C(O)c4cc5cccnc5cc4F)n3n2)cn1 (racemic) [Example 248, (rac)-7-Fluoro-quinolin-6-yl)-[6-(1-methyl-1H-pyrazol-4-yl)-imidazo[1,2-b]pyridazin-3-yl]-methanol]	370
CCn1cc(-c2ccc3ncc(C(O)c4cc5cccnc5cc4F)n3n2)cn1 (racemic) [Example 249, (rac)-[6-(1-Ethyl-1H-pyrazol-4-yl)-imidazo[1,2-b]pyridazin-3-yl]-(7-fluoro-quinolin-6-yl)methanol]	380
OC(c1cc2cccnc2cc1F)c1cnc2ccc(-c3cn[nH]c3)nn12 (racemic) [Example 252, (rac)-(7-Fluoro-quinolin-6-yl)-[6-(1H-pyrazol-4-yl)-imidazo[1,2-b]pyridazin-3-yl]-methanol]	280
CC(c1cc2cccnc2cc1F)c1cnc2ccc(-c3cnn(C)c3)nn12 (racemic) [Example 253, (rac)-7-Fluoro-6-{1-[6-(1-methyl-1H-pyrazol-4-yl)-imidazo[1,2-b]pyridazin-3-yl]-ethyl}-quinoline]	13
CC(c1cc2cccnc2cc1F)c1cnc2ccc(-c3cnn(CCO)c3)nn12 (racemic) [Example 255]	36
CC(c1cc2cccnc2cc1F)c1cnc2ccc(-c3cnn(C4CCNCC4)c3)nn12 (racemic) [Example 258, (rac)-7-Fluoro-6-{1-[6-(1-piperidin-4-yl-1H-pyrazol-4-yl)-imidazo[1,2-b]pyridazin-3-yl]-ethyl}-quinoline]	43
CC(c1cc2cccnc2cc1F)c1cnc2ccc(-c3cnn(C4CCN(C)CC4)c3)nn12 (racemic) [Example 259, (rac)-7-Fluoro-6-(1-{6-[1-(1-methyl-piperidin-4-yl)-1H-pyrazol-4-yl]-imidazo[1,2-b]pyridazin-3-yl}-ethyl)-quinoline]	23
CNC1CCN(c2ccc3ncc(Cc4cc5cccnc5cc4F)n3n2)C1 (racemic) [Example 260, (rac)-{1-[3-(7-fluoro-quinolin-6-ylmethyl)-imidazo[1,2-b]pyridazin-6-yl]-pyrrolidin-3-yl}-methylamine]	5.2
CC(O)(c1c(F)cc2ncccc2c1F)c1cnc2ccc(-c3cnn(CCO)c3)nn12 (racemic) [Example 267, (rac)-1-(5,7-Difluoro-quinolin-6-yl)-1-{6-[1-(2-hydroxy-ethyl)-1H-pyrazol-4-yl]-imidazo[1,2-b]pyridazin-3-yl}-ethanol]	260
CC(c1cc2cnn(C)c2cc1F)c1cnc2ccc(-c3cnn(C)c3)nn12 (racemic) [Example 278, (rac)-3-[1-(6-Fluoro-1-methyl-1H-indazol-5-yl)-ethyl]-6-(1-methyl-1H-pyrazol-4-yl)-imidazo[1,2-b]pyridazine]	21
CC(c1cc2cnn(C)c2cc1F)c1cnc2ccc(-c3cnn(CCO)c3)nn12 (racemic) [Example 279, (rac)-2-(4-{3-[1-(6-Fluoro-1-methyl-1H-indazol-5-yl)-ethyl]-imidazo[1,2-b]pyridazin-6-yl}-pyrazol-1-yl)-ethanol]	15
CC(c1ccc2nccn2c1)c1cnc2ccc(Cl)nn12 (racemic) [Example 292, (rac)-6-Chloro-3-(1-imidazo[1,2-a]pyridin-6-yl-ethyl)-imidazo[1,2-b]pyridazine]	80
CC(c1ccc2nccn2c1)c1cnc2ccc(-c3cnn(C)c3)nn12 (racemic) [Example 293, (rac)-3-(1-Imidazo[1,2-a]pyridin-6-yl-ethyl)-6-(1-methyl-1H-pyrazol-4-yl)-imidazo[1,2-b]pyridazine]	23
Cc1cccc(-c2ccc3ncc(C(C)c4ccc5nccn5c4)n3n2)c1 (racemic) [Example 308, (rac)-3-(1-Imidazo[1,2-a]pyridin-6-yl-ethyl)-6-m-tolyl-imidazo[1,2-b]pyridazine]	82
CC(c1ccc2ncc(Br)n2c1)c1cnc2ccc(-c3cnn(C)c3)nn12 (racemic) [Example 309, (rac)-3-[1-(3-Bromo-imidazo[1,2-a]pyridin-6-yl)-ethyl]-6-(1-methyl-1H-pyrazol-4-yl)imidazo[1,2-b]pyridazine]	16
CC(c1ccc2ncc(Br)n2c1)c1cnc2ccc(-c3cnn(CCO)c3)nn12 (racemic) [Example 310, (rac)-2-(4-{3-[1-(3-Bromo-imidazo[1,2-a]pyridin-6-yl)-ethyl]-imidazo[1,2-b]pyridazin-6-yl}-pyrazol-1-yl)-ethanol]	10
Cn1cc(-c2ccc3ncc(Cc4ccc5ncccc5c4)n3n2)cn1 [Example 2, 6-[6-(1-Methyl-1H-pyrazol-4-yl)-imidazo[1,2-b]pyridazin-3-ylmethyl]-quinoline]	14
COc1ccc(Cc2cnc3ccc(-c4cnn(C)c4)nn23)cc1 [Example 4, 3-(4-methoxy-benzyl)-6-(1-methyl-1H-pyrazol-4-yl)-imidazo[1,2-b]pyridazine]	280
Cn1cc(-c2ccc3ncc(Cc4ccc(O)cc4)n3n2)cn1 [Example 5, 4-[6-(1-Methyl-1H-pyrazol-4-yl)-imidazo[1,2-b]pyridazin-3-ylmethyl]-phenol]	53
Cn1cc(-c2ccc3ncc(C(F)(F)c4ccc5ncccc5c4)n3n2)cn1 [Example 6, 6-{Difluoro-[6-(1-methyl-1H-pyrazol-4-yl)-imidazo[1,2-b]pyridazin-3-yl]-methyl}-quinoline]	14
c1cnc2ccc(Cc3cnc4ccc(-c5cnn(C6CCNCC6)c5)nn34)cc2c1 [Example 7, 6-[6-(1-piperidin-4-yl-1H-pyrazol-4-yl)-imidazo[1,2-b]pyridazin-3-ylmethyl]-quinoline]	50
Cn1cc(-c2ccc3ncc(Cc4ccc5occc5c4)n3n2)cn1 [Example 8, 3-Benzofuran-5-ylmethyl-6-(1-methyl-1H-pyrazol-4-yl)-imidazo[1,2-b]pyridazine]	270
Cn1cc(-c2ccc3ncc(Cc4ccc5nccn5c4)n3n2)cn1 [Example 10, 3-Imidazo[1,2-a]pyridin-6-ylmethyl-6-(1-methyl-1H-pyrazol-4-yl)-imidazo[1,2-b]pyridazine]	21.5
Cn1cc(-c2ccc3ncc(Cc4ccc5ncsc5c4)n3n2)cn1 [Example 12, 3-Benzothiazol-6-ylmethyl-6-(1-methyl-1H-pyrazol-4-yl)-imidazo[1,2-b]pyridazine]	32.5
Cc1nc2ccc(Cc3cnc4ccc(-c5cnn(C)c5)nn34)cc2s1 [Example 13, 3-(2-Methyl-benzothiazol-6-ylmethyl)-6-(1-methyl-1H-pyrazol-4-yl)-imidazo[1,2-b]pyridazine]	73.5
NC(=O)c1ccc(-c2ccc3ncc(Cc4ccc5ncccc5c4)n3n2)cc1Cl [Example 15, 2-Chloro-4-(3-quinolin-6-ylmethyl-imidazo[1,2-b]pyridazin-6-yl)-benzamide]	9.5
Cc1ccc(-c2ccc3ncc(Cc4ccc5ncccc5c4)n3n2)cc1 [Example 16, 6-(6-p-Tolyl-imidazo[1,2-b]pyridazin-3-ylmethyl)-quinoline]	94.5
c1ccc2cc(-c3ccc4ncc(Cc5ccc6ncccc6c5)n4n3)ccc2c1 [Example 17, 6-(6-Naphthalen-2-yl-imidazo[1,2-b]pyridazin-3-ylmethyl)-quinoline]	210
FC(F)(F)c1cccc(-c2ccc3ncc(Cc4ccc5ncccc5c4)n3n2)c1 [Example 18, 6-[6-(3-Trifluoromethyl-phenyl)-imidazo[1,2-b]pyridazin-3-ylmethyl]-quinoline]	65.5

From patent US8822468B2 (Novartis AG, priority 2008, dated 2014)
